According to patent US20040116385A1, “Treating and preventing viral infections with porphyrin-based compounds” (priority 2002, published 2004):

Key:
[1] = test system: HIV-1 strain IIIB; test: In vitro virucidal activity against HIV-1 strain IIIB (assay of A. Vzorov et al. 2002); type: cell-based; conditions: 0% = no infective particles remained
Experimental: (§1) Porphyrins 16, 31, and 33 have been assayed for in vitro virucidal activity against HIV-1 using the assay of A. Vzorov et al. (2002) (full citation below). The assay was conducted on two different strains of HIV-1, strain IIIB, and strain 89.6. The figures in the table denote the percentage of viral particles that were still infective following treatment.

[2] = test system: HIV-1 strain 89.6; test: In vitro virucidal activity against HIV-1 strain 89.6 (assay of A. Vzorov et al. 2002); type: cell-based; conditions: 0% = no infective particles remained
Experimental: as §1

[3] = test system: supercoiled DNA substrate φX174; test: Supercoiled DNA nicking assay (DNA photodamage); type: biochemical; conditions: for Form II (nicked) DNA produced in the dark: samples kept in the dark; for phosphodiester breaks in supercoiled DNA, light-exposed versus dark: yellow light 100 W bulb, 30 cm, 30 minutes
From the text: In the first test to determine the ability of a porphyrin to induce DNA photodamage, we used a supercoiled DNA substrate that migrates rapidly as a single band in agarose gels, but migrates much more slowly if the DNA sustains as little as a single phosphodiester break or nick. Using this technique, we examined the ability of porphyrins 16, 31 and 33 to nick the supercoiled DNA substrate φX174. The porphyrin—DNA mixtures were shielded from light until just prior to the nicking assay, at which time half of each sample remained in the dark, while the other half was exposed to yellow light from a 100 W bulb at a distance of 30 cm for 30 minutes, at room temperature. The samples were then incubated for 30 min at room temperature in the dark, and the products of the reaction were then electrophoresed on a 1% agarose gel and stained.

[4] = test system: human leukemia K562 cells; test: Alkaline Comet assay; type: cell-based; conditions: yellow light 100 W bulb 5 minutes, versus dark and light-only controls
Experimental: The second test, the alkaline Comet assay, is a sensitive technique for determining the presence of single- and double-strand breaks and other DNA lesions such as baseless sites. Human K562 cells were incubated with porphyrins 16, 31, and 33, and were then either exposed to a source of yellow light from a 100 W bulb for 5 minutes at room temperature or kept in the dark. The cells were then immobilized on agarose slides, lysed, exposed to alkaline buffer, electrophoresed, and stained for visualization.

[5] = test system: HIV-1; conditions: preliminary experiments
[6] = mouse, in vivo
[7] = test system: V79 hamster fibroblast cells
From the text: We have also determined the cytotoxicity of porphyrins 4, 16, 18, and 31 in V79 hamster fibroblast cells using a clonogenic assay.

[8] = test system: Rat gliosarcoma 9L cells; test: Dark cytotoxicity assay, 9L cells; type: cell-based; conditions: 24 hour exposure, read-out: IC50 (dark toxicity)
Experimental: (§2) Human glioblastoma U373 MG, hamster V79 fibroblast, and mouse melanoma B16 cells were obtained from the American Type Culture Collection. Rat gliosarcoma cells were kindly provided by the University of California at San Francisco Brain Tumor Research Group. All cells were maintained in log phase monolayer cultures with RPMI 1640 supplemented with 10% fetal bovine serum and 2 mM glutamine.
(§3) Cells were seeded in 96-well culture plates, and were allowed to settle and attach for 24-48 hours. Triplicate wells were then exposed to twofold serial dilutions of test compounds at concentrations up to 250 μM. Compounds 4, 6, 10, and 12 in crystalline form were carefully weighed and dissolved in 100% DMSO to prepare stock solutions. Subsequent dilutions were performed directly in the culture medium just before the medium was administered to cells. After short-term (2 hour) or long-term (24 hour) exposure, cells were washed, and the wells were refilled with fresh culture medium. For dark toxicity trials, cells were allowed to proliferate for an additional 48-72 hours. For phototoxicity trials, washed cells were irradiated for 10 minutes with broad spectrum (600-700 nm) red light, and were then returned to an incubator for 48-72 hours.

[9] = test system: Human glioblastoma U373 MG cells; test: Dark cytotoxicity assay, U-373 MG cells; type: cell-based; conditions: 24 hour exposure, read-out: IC50 (dark toxicity)
Experimental: as §2, §3

[10] = test system: 9L, U-373MG and B16 cells; test: Concentration-dependent cellular uptake; type: cell-based; conditions: cells exposed to 1, 5, and 10 μM for 24 hours
Experimental: The concentration-dependent uptake of compounds 4, 6, 10, and 12 was investigated in cells exposed to 1, 5, and 10 μM concentrations of the porphyrins for 24 hours. The concentration of intracellular-bound porphyrin was determined by chemical extraction of washed cell monolayers, followed by spectrophotometric or ICP-MS determinations, or both. The uptake values for 9L and U-373MG cells were very similar, and exceeded that for B16 cells. The porphyrin accumulation was invariably observed to increase with increasing concentration of the compound.

[11] = test system: 9L, U-373 MG and B16 cells; test: Phototoxicity assay (red light irradiation); type: cell-based; conditions: irradiation with broad spectrum (600-700 nm) red light 10 minutes
Experimental: as §2, §3

Substance	percentage of viral particles that were still infective following treatment [1] [%]	percentage of viral particles that were still infective following treatment [2] [%]	Form II (nicked) DNA produced in the dark [3]	phosphodiester breaks in supercoiled DNA, light-exposed versus dark [3]	DNA damage (Comet tail) after light exposure [4]	activity against HIV-1 in vitro [5]	maximum tolerated dose [6]	CS50 [7] [µM]	IC50 [8] [µM]	IC50 [9] [µM]	uptake relative to the corresponding Zn(II) complexes [10]	IC50 ([11]; 2-hour exposure) [µM]	IC50 ([11]; 24-hour exposure) [µM]
5,15-bis[bis-3,5-(1-methyl-nido-carboranyl)methylphenyl]porphyrin tetrapotassium salt [Compound 31]	9	2	little Form II DNA	significantly more effective	light-activated DNA damage	high levels of activity	exceeded 300 mg per kg of body weight	> 300	–	–	–	–	–
Zn(II)-5,15-bis[bis-3,5-(1-methyl-nido-carboranyl)methylphenyl]porphyrin tetrapotassium salt [Compound 33]	0	4	little Form II DNA	significantly more effective	light-activated DNA damage	high levels of activity	exceeded 300 mg per kg of body weight	–	–	–	–	–	–
Zn(II)-meso-tetra[4-(1-methyl-nido-carboranyl)methylphenyl]porphyrin tetrapotassium salt [Compound 6]	–	–	–	–	–	–	exceeded 300 mg per kg of body weight	–	–	–	–	–	–
Zn(II)-meso-tetra[4-(nido-carboranyl)phenyl]porphyrin tetrapotassium salt [Compound 18]	–	–	–	–	–	–	–	> 300	–	–	–	–	–
meso-tetra[3-(1-methyl-nido-carboranyl)methylphenyl]porphyrin tetrapotassium salt [Compound 10]	–	–	–	–	–	–	–	–	~150	~150	approximately four times greater	–	–
meso-tetra[4-(1-methyl-nido-arboranyl)methylphenyl]porphyrin tetrapotassium salt [Compound 4]	–	–	–	–	–	–	exceeded 300 mg per kg of body weight	> 300	~150	~150	approximately four times greater	~50	~1.5
meso-tetra[4-(nido-carboranyl)phenyl]porphyrin tetrapotassium salt [Compound 16]	4	0	little Form II DNA	significantly more effective	light-activated DNA damage	high levels of activity	exceeded 300 mg per kg of body weight	> 300	–	–	–	–	–
